The results in this text go back to publication PMC11989005, “The Elongation Factor 1 Alpha Promoter Drives the Functional Expression of Kir2A in Plutella xylostella Cells” (International Journal of Molecular Sciences, 2025).

In general, IC50 refers to the concentration at which inhibition is half-maximal.

For this assay, the target named is T1, PxKir2A (Plutella xylostella, UniProt A0A7L7TNR0).
T1 construct: gene kir2; full-length ORF in pEF1alpha-PxKir2A, no tag stated; transiently expressed in P. xylostella Px4-2 cells, EGFP co-transfected from a separate plasmid
The assay is described as follows: whole-cell patch clamp, inhibition of inward K+ current. The assay is classed as cell-based.

The structures appear in SMILES notation. Read-outs that look alike come from different tables or passages of the source.

T1 sequence (A0A7L7TNR0 entry or part of it): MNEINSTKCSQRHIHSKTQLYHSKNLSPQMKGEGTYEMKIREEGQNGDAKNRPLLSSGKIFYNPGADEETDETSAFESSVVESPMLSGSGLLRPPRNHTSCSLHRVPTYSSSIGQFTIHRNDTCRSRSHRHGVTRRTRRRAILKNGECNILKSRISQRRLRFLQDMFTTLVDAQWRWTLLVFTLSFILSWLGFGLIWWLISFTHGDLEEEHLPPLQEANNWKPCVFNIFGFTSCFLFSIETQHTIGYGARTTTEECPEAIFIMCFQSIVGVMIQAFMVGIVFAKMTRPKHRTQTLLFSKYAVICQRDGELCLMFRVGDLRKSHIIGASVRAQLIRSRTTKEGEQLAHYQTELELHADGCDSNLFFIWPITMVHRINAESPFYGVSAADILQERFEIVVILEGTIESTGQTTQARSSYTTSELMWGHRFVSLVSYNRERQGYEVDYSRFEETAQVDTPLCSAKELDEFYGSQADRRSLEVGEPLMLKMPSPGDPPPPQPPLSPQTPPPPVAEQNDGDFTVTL

With `CCC(=O)N1c2ccc(S(=O)(=O)Nc3cccc(OC)c3)cc2CC1C` (centres unmarked) [VU625], the IC50 (bath 50 mM KCl, pH 6.4, 25 °C, holding -20 mV, steps -120 to +20 mV, DMSO <0.05%, read-out: IC50) amounted to 0.151 µM.
`O=[N+]([O-])c1ccc(CN2CCOCCOCCN(Cc3ccc([N+](=O)[O-])cc3)CCOCC2)cc1` [VU590] displayed an IC50 of 0.634 µM.
